By inhibition is commonly meant the relative decrease from the control value, in per cent. Read a low inhibition as a response near the control.

In this test the test system is Human melanoma HM3KO cells. Put plainly: Effect on inhibition of melanin production. In kind it is cell-based. To be noted: 10 ppm of each test material, absorbance at 500 nm vs DMSO control. How it is done: Human melanoma HM3KO cells (Y. Funasaka, Department of dermatology, Kobe university school of medicine, 5-1 Kusunoki-cho 7-chrome, Chuo-ku, Kobe 650, Japan) were cultured in 10% FBS-containing MEM (Minimum Essential Medium) under the conditions of 37° C. and 5% CO2. The cultured cells were plated on T75 flasks at a density of 3×10^5 cells per flask and allowed to stand overnight until the cells adhered to the flask wall. After the cells were confirmed to adhere to the flask wall, the medium was replaced with a fresh medium containing 10 ppm of each of the test materials shown in Table 1 below. In a control group, a DMSO-containing medium was used. In this manner, the medium was replaced with a fresh medium containing each test material once at intervals of 2-3 days, while the cells were cultured until the flask was filled with the cells. When the cells completely grew, the cells were collected, and the color thereof was compared between the control group and each of the groups treated with the test material. In addition, after the culture medium has been removed and the cells were washed with PBS, the cells were dissolved in 1N sodium hydroxide, and the absorbance at 500 nm was measured. Based on the measurements, the inhibition (%) of melanin production was calculated using the following equation 1, and the results of the calculation are shown in Table 1 below. Inhibition (%) of melanin production=[…] [Equation 1]
Take `NC[C@H]1CC[C@H](C(=O)O)CC1` [Tranexamic acid]: the inhibition at 10 ppm was 32.2%.

Regarding `NC(=O)c1cccnc1` [Nicotinic acid amide], 10 ppm produced 29.5% inhibition.

In turn, `O=c1cc(CO)occ1O` [Kojic acid] displayed an inhibition at 10 ppm of 28.3%.
